Counter-ions that a name gives are not always drawn. Like-named read-outs stand apart in the source and are kept apart here.
What was measured:
[1] = molecular target: T1, SARS-CoV-2 PLpro (nsp3 1564–1878) (Severe acute respiratory syndrome coronavirus 2, UniProt P0DTD1); assay: biochemical; design: FRET-quenched peptide (Pro3) cleavage by PLpro, 10 min pre-incubation, slope over 20 min, normalised to no-compound control; settings: read-out: % of control remaining
[2] = molecular target: T1, SARS-CoV-2 PLpro (nsp3 1564–1878); assay: biochemical; design: FRET-quenched peptide (Pro3) cleavage by PLpro, 10 min pre-incubation, slope over 20 min, normalised to no-compound control; settings: read-out: % of control remaining; remark: listed apart in the source

CC[C@H]1OC(=O)[C@@](C)(F)C(=O)[C@H](C)[C@@H](O[C@@H]2O[C@H](C)C[C@H](N(C)C)[C@H]2O)[C@](C)(OC)C[C@@H](C)C(=O)[C@H](C)[C@H]2N(CCCCn3cc(-c4cccc(N)c4)nn3)C(=O)O[C@]12C [Solithromycin]
remaining activity at 1.25 µM ([1]; Well no.=7990, low concentration screen): 97.5% | remaining activity at 3.75 µM ([2]; Well no.=7990, high concentration screen): 95.7%

C=C1[C@H]2C[C@@]3([C@@H]1O)[C@@H](CC2=O)[C@]12[C@@H]4C[C@H]3[C@H]1N(CC)C[C@]4(C)CC[C@@H]2O [Songorine]
remaining activity at 1.25 µM ([1]; Well no.=3203, low concentration screen): 102% | remaining activity at 3.75 µM ([2]; Well no.=3203, high concentration screen): 102%

O=C1C=CC[C@@H]2[C@H]3CCCN4CCC[C@@H](CN12)[C@@H]34 [Sophocarpine]
remaining activity at 1.25 µM ([1]; Well no.=4870, low concentration screen): 99.5% | remaining activity at 3.75 µM ([2]; Well no.=4870, high concentration screen): 101%

CNC(=O)c1cc(Oc2ccc(NC(=O)Nc3ccc(Cl)c(C(F)(F)F)c3)cc2)ccn1 [Sorafenib]
remaining activity at 1.25 µM ([1]; Well no.=2941, low concentration screen): 101% | remaining activity at 3.75 µM ([2]; Well no.=2941, high concentration screen): 97.8%

OC[C@@H](O)[C@@H](O)[C@H](O)[C@@H](O)CO [Sorbitol]
remaining activity at 1.25 µM ([1]; Well no.=8244, low concentration screen): 100% | remaining activity at 3.75 µM ([2]; Well no.=8244, high concentration screen): 99.8%

CCOc1ccc(Cc2cc([C@@H]3O[C@H](SC)[C@@H](O)[C@H](O)[C@H]3O)ccc2Cl)cc1 [Sotagliflozin (LX4211)]
remaining activity at 1.25 µM ([1]; Well no.=8820, low concentration screen): 97.4% | remaining activity at 3.75 µM ([2]; Well no.=8820, high concentration screen): 95.6%

CC(C)NCC(O)c1ccc(NS(C)(=O)=O)cc1 (stereo not shown) [Sotalol (hydrochloride)]
remaining activity at 1.25 µM ([1]; Well no.=6363, low concentration screen): 100% | remaining activity at 3.75 µM ([2]; Well no.=6363, high concentration screen): 98.6%

CC(C)NCC(O)c1ccc(NS(C)(=O)=O)cc1 (stereo not shown) [Sotalol.HCl]
remaining activity at 1.25 µM ([1]; Well no.=1785, low concentration screen): 103% | remaining activity at 3.75 µM ([2]; Well no.=1785, high concentration screen): 102%

CN1CCN(c2nc(C3=C(c4c[nH]c5ccccc45)C(=O)NC3=O)c3ccccc3n2)CC1 [Sotrastaurin (AEB071)]
remaining activity at 1.25 µM ([1]; Well no.=4747, low concentration screen): 105% | remaining activity at 3.75 µM ([2]; Well no.=4747, high concentration screen): 109%

C[C@@H]1CN(c2c(F)c(N)c3c(=O)c(C(=O)O)cn(C4CC4)c3c2F)C[C@H](C)N1 [Sparfloxacin]
remaining activity at 1.25 µM ([1]; Well no.=2251, low concentration screen): 95.3% | remaining activity at 3.75 µM ([2]; Well no.=2251, high concentration screen): 97.4%

CNC1C(O)C(NC)C2OC3(O)C(=O)CC(C)OC3OC2C1O (stereo not shown) [Spectinomycin.2HCl]
remaining activity at 1.25 µM ([1]; Well no.=1587, low concentration screen): 101% | remaining activity at 3.75 µM ([2]; Well no.=1587, high concentration screen): 101%

CN[C@@H]1[C@H](O)[C@H](NC)[C@H]2O[C@@]3(O)C(=O)C[C@@H](C)O[C@H]3O[C@@H]2[C@H]1O [Spectinomycin]
remaining activity at 1.25 µM ([1]; Well no.=3174, low concentration screen): 103% | remaining activity at 3.75 µM ([2]; Well no.=3174, high concentration screen): 110%

NCCCCNCCCN [Spermidine trihydrochloride]
remaining activity at 1.25 µM ([1]; Well no.=1168, low concentration screen): 102% | remaining activity at 3.75 µM ([2]; Well no.=1168, high concentration screen): 104%

NCCCCNCCCN [Spermidine]
remaining activity at 1.25 µM ([1]; Well no.=7069, low concentration screen): 107% | remaining activity at 3.75 µM ([2]; Well no.=7069, high concentration screen): 105%

NCCCNCCCCNCCCN [Spermine tetrahydrochloride]
remaining activity at 1.25 µM ([1]; Well no.=1312, low concentration screen): 100% | remaining activity at 3.75 µM ([2]; Well no.=1312, high concentration screen): 101%

CCCCCCCCCCCCC/C=C/[C@@H](O)[C@@H](N)CO [Sphingosine]
remaining activity at 1.25 µM ([1]; Well no.=4361, low concentration screen): 101% | remaining activity at 3.75 µM ([2]; Well no.=1172, high concentration screen): 104% | remaining activity at 3.75 µM ([2]; Well no.=4361, high concentration screen): 93.6%

O=C(CCCN1CCC2(CC1)C(=O)NCN2c1ccccc1)c1ccc(F)cc1 [Spiperone hydrochloride]
remaining activity at 1.25 µM ([1]; Well no.=1268, low concentration screen): 105% | remaining activity at 3.75 µM ([2]; Well no.=1268, high concentration screen): 105%

CC(=O)S[C@@H]1CC2=CC(=O)CC[C@]2(C)[C@H]2CC[C@@]3(C)[C@@H](CC[C@@]34CCC(=O)O4)[C@H]12 [Spironolactone]
remaining activity at 1.25 µM ([1]; Well no.=1266, low concentration screen): 97.8% | remaining activity at 1.25 µM ([1]; Well no.=2253, low concentration screen): 93% | remaining activity at 3.75 µM ([2]; Well no.=1266, high concentration screen): 93.5% | remaining activity at 3.75 µM ([2]; Well no.=2253, high concentration screen): 82.7%

O=C1NCN(c2ccccc2)C12CCN(CC1COc3ccccc3O1)CC2 (stereo not shown) [Spiroxatrine]
remaining activity at 1.25 µM ([1]; Well no.=1277, low concentration screen): 99.7% | remaining activity at 3.75 µM ([2]; Well no.=1277, high concentration screen): 102%

O=C1CCc2c(ccc3ccccc23)O1 [Splitomicin]
remaining activity at 1.25 µM ([1]; Well no.=5525, low concentration screen): 105% | remaining activity at 3.75 µM ([2]; Well no.=5525, high concentration screen): 120%

CC(C)=CCC/C(C)=C/CC/C(C)=C/CC/C=C(\C)CC/C=C(\C)CCC=C(C)C [Squalene]
remaining activity at 1.25 µM ([1]; Well no.=7255, low concentration screen): 98.6% | remaining activity at 3.75 µM ([2]; Well no.=7255, high concentration screen): 96.6%

COc1cc2ncnc(Nc3ccc(Oc4ccccc4)cc3)c2cc1OC [Src Kinase Inhibitor I]
remaining activity at 1.25 µM ([1]; Well no.=2563, low concentration screen): 99.2% | remaining activity at 3.75 µM ([2]; Well no.=2563, high concentration screen): 99.3%

C[N+]1(C)CCC[C@H]1C(=O)[O-] [Stachydrine hydrochloride]
remaining activity at 1.25 µM ([1]; Well no.=8032, low concentration screen): 98.3% | remaining activity at 3.75 µM ([2]; Well no.=8032, high concentration screen): 96.9%

C[N+]1(C)CCC[C@H]1C(=O)[O-] [Stachydrine]
remaining activity at 1.25 µM ([1]; Well no.=6917, low concentration screen): 109% | remaining activity at 1.25 µM ([1]; Well no.=7414, low concentration screen): 104% | remaining activity at 3.75 µM ([2]; Well no.=6917, high concentration screen): 93.7% | remaining activity at 3.75 µM ([2]; Well no.=7414, high concentration screen): 102%

C[C@]12Cc3c[nH]nc3C[C@@H]1CC[C@@H]1[C@@H]2CC[C@@]2(C)[C@H]1CC[C@]2(C)O [Stanozolol]
remaining activity at 1.25 µM [1]: 94% | remaining activity at 3.75 µM [2]: 95.3%

O=[N+]([O-])c1ccc2c(c1)S(=O)(=O)C=C2 [Stattic]
remaining activity at 1.25 µM ([1]; Well no.=4748, low concentration screen): 104% | remaining activity at 3.75 µM ([2]; Well no.=4748, high concentration screen): 104%

CN[C@@H]1C[C@H]2O[C@@](C)([C@@H]1OC)n1c3ccccc3c3c4c(c5c6ccccc6n2c5c31)C(=O)NC4 [Staurosporine, Streptomyces sp.]
remaining activity at 1.25 µM ([1]; Well no.=2656, low concentration screen): 94.8% | remaining activity at 1.25 µM ([1]; Well no.=2661, low concentration screen): 89.3% | remaining activity at 3.75 µM ([2]; Well no.=2656, high concentration screen): 95% | remaining activity at 3.75 µM ([2]; Well no.=2661, high concentration screen): 84.8%

Cc1cn([C@H]2C=C[C@@H](CO)O2)c(=O)[nH]c1=O [Stavudine]
remaining activity at 1.25 µM ([1]; Well no.=7916, low concentration screen): 99.6% | remaining activity at 3.75 µM ([2]; Well no.=7916, high concentration screen): 96.8%

COc1cc2ncnc(Nc3ccc(Cl)cc3Cl)c2cc1OC [Ste11 MAPKKK Activation Inhibitor]
remaining activity at 1.25 µM ([1]; Well no.=2673, low concentration screen): 96.8% | remaining activity at 3.75 µM ([2]; Well no.=2673, high concentration screen): 99.8%

CCCCCCCCCCCCCCCCCC(=O)O [Stearic acid]
remaining activity at 1.25 µM ([1]; Well no.=6963, low concentration screen): 98.8% | remaining activity at 3.75 µM ([2]; Well no.=6963, high concentration screen): 102%

CC(C)n1cnc2c(NCCc3ccc(O)cc3)nc(-c3csc4ccccc34)nc21 [StemRegenin 1]
remaining activity at 1.25 µM ([1]; Well no.=4827, low concentration screen): 101% | remaining activity at 3.75 µM ([2]; Well no.=4827, high concentration screen): 98.2%

CN[C@@H]1[C@H](O[C@H]2[C@H](O[C@H]3[C@H](O)[C@@H](O)[C@H](N=C(N)N)[C@@H](O)[C@@H]3N=C(N)N)O[C@@H](C)[C@]2(O)C=O)O[C@@H](CO)[C@H](O)[C@H]1O [Streptomycin]
remaining activity at 1.25 µM ([1]; Well no.=2285, low concentration screen): 97.7% | remaining activity at 3.75 µM ([2]; Well no.=2285, high concentration screen): 97.7%

COC1=C(N)C(=O)c2nc(-c3nc(C(=O)O)c(C)c(-c4ccc(OC)c(OC)c4O)c3N)ccc2C1=O [Streptonigrin]
remaining activity at 1.25 µM ([1]; Well no.=3304, low concentration screen): 96.9% | remaining activity at 3.75 µM ([2]; Well no.=3304, high concentration screen): 96.9%
